Each molecule was assayed against T1, STING (Homo sapiens, UniProt Q86WV6, G230A/H232R/R293Q/R71H) (assay: Reporter gene expression assay in THP1-Dual cells (IRF pathway Lucia luciferase, 2',3'-cGAMP stimulation)). Conditions: 10 min preincubation, 5 μM 2',3'-cGAMP, 20 hr, IRF reporter QUANTI-Luc, read-out: THP-1 (HAQ) Activity.
T1 construct: host or cells: THP1-Dual cells (human THP-1 monocyte line with Lucia/SEAP reporters)
Type: cell-based
Outline: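 THP1-Dual cells preincubated 10 min with compound, then stimulated with 5 μM 2′,3′-cGAMP for 20 hr. Secreted Lucia luciferase (IRF reporter) measured in supernatant by luminescence; IC50 reported as ranges (A ≤1 μM, B >1–≤10 μM, C >10 μM).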

T1 sequence (Q86WV6 whole entry R71H/G230A/H232R/R293Q): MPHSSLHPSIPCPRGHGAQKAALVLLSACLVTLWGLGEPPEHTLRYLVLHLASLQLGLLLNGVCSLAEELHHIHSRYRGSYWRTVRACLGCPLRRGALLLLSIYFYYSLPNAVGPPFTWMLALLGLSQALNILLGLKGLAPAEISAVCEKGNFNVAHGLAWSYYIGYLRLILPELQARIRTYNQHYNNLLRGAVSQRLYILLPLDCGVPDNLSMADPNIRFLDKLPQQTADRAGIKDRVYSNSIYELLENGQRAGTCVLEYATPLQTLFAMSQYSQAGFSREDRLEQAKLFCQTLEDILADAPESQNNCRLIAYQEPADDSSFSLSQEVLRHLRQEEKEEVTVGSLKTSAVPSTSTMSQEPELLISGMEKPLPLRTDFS

IC50 [µM]	SMILES
1 to 10	O=C(Nc1ccc2c(c1)OCC(=O)N2CC1CCCO1)Nc1ccc2cc[nH]c2c1 (stereo not drawn) [Example 146, 1-(1H-indol-6-yl)-3-(3-oxo-4-((tetrahydro-furan-2-yl)methyl)-3,4-dihydro-2H-benzo[b][1, 4]oxazin-7-yl)urea]
1 to 10	O=C(Nc1ccc2c(c1)OCC(=O)N2CC1CCOC1)Nc1ccc2cc[nH]c2c1 (stereo not drawn) [Example 150, 1-(1H-indol-6-yl)-3-(3-oxo-4-((tetrahydrofuran-3-yl)methyl)-3,4-dihydro-2H-benzo [b][1, 4]oxazin-7-yl)urea]
> 10	O=C(Nc1ccc2c(c1)OCC(=O)N2Cc1nnco1)Nc1ccc2cc[nH]c2c1 [Example 151, 1-(4-((1,3,4′-oxadiazol-2-yl)methyl)-3-oxo-3,4-dihydro-2H-benzo[b][1, 4]oxazin-7-yl)-3-(1H-indol-6-yl)urea]
1 to 10	O=C(Nc1ccc2c(c1)OCC(=O)N2Cc1cccc(O)c1)Nc1ccc2cc[nH]c2c1 [Example 152, 1-(4-(3-hydroxybenzyl)-3-oxo-3,4-dihydro-2H-benzo[b][1, 4]oxazin-7-yl)-3-(1H-indol-6-yl)urea]
1 to 10	N#CCN1C(=O)COc2cc(NC(=O)Nc3ccc4cc[nH]c4c3)ccc21 [Example 157, 1-(4-(cyanomethyl)-3-oxo-3,4-dihydro-2H-benzo[b][1, 4]oxazin-7-yl)-3-(1H-indol-6-yl)urea]
> 10	O=C(Nc1ccc2c(c1)OCC(=O)N2Cc1ccn[nH]1)Nc1ccc2cc[nH]c2c1 [Example 161, 1-(4-((1H-pyrazol-5-yl)methyl)-3-oxo-3,4-dihydro-2H-benzo[b][1, 4]oxazin-7-yl)-3-(1H-indol-6-yl)urea]
> 10	O=C(Nc1ccc2c(c1)OCC(=O)N2Cc1cnc[nH]1)Nc1ccc2cc[nH]c2c1 [Example 162, 1-(4-((1H-imidazol-5-yl)methyl)-3-oxo-3,4-dihydro-2H-benzo[b][1, 4]oxazin-7-yl)-3-(1H-indol-6-yl)urea]
> 10	O=C(Nc1ccc2c(c1)OCC(=O)N2Cc1ncno1)Nc1ccc2cc[nH]c2c1 [Example 163, 1-(4-((1,2,4-oxadiazol-5-yl)methyl)-3-oxo-3,4-dihydro-2H-benzo[b][1,4]oxazin-7-yl)-3-(1H-indol-6-yl)urea]
1 to 10	O=C(Nc1ccc2c(c1)OCC(=O)N2Cc1ccon1)Nc1ccc2cc[nH]c2c1 [Example 164, 1-(1H-indol-6-yl)-3-(4-(isoxazol-3-ylmethyl)-3-oxo-3,4-dihydro-2H-benzo[b][1, 4]oxazin-7-yl)urea]
> 10	O=C(Nc1ccc2c(c1)N(Cc1ccccc1)CC[S+]2[O-])Nc1ccc2cc[nH]c2c1 (stereo not drawn) [Example 167, 1-(4-benzyl-1-oxido-3,4-dihydro-2H-benzo[b][1, 4]thiazin-6-yl)-3-(1H-indol-6-yl)urea]
> 10	CN1CCSc2ccc(NC(=O)Nc3ccc4cc[nH]c4c3)cc21 [Example 168, 1-(1H-indol-6-yl)-3-(4-methyl-3,4-dihydro-2H-benzo[b][1, 4]thiazin-6-yl)urea]
≤ 1	O=C(Nc1ccc2c(c1)N(Cc1c(F)cccc1Cl)CCO2)Nc1ccc2cc[nH]c2c1 [Example 169, 1-(4-(2-chloro-6-fluorobenzyl)-3,4-dihydro-2H-benzo[b][1, 4]oxazin-6-yl)-3-(1H-indol-6-yl)urea]
1 to 10	O=C(Nc1ccc2c(c1)OCCN2Cc1c(F)cccc1Cl)Nc1ccc2cc[nH]c2c1 [Example 170, 1-(4-(2-chloro-6-fluorobenzyl)-3,4-dihydro-2H-benzo[b][1, 4]oxazin-7-yl)-3-(1H-indol-6-yl)urea]
≤ 1	O=C(Nc1ccc2c(c1)SCCN2Cc1c(F)cccc1Cl)Nc1ccc2cc[nH]c2c1 [Example 171, 1-(4-(2-chloro-6-fluorobenzyl)-3,4-dihydro-2H-benzo[b][1, 4]thiazin-7-yl)-3-(1H-indol-6-yl)urea]
1 to 10	O=C(Nc1ccc(F)cc1)Nc1ccc2c(c1)N(Cc1ccccc1)CCS2 [Example 173, 1-(4-benzyl-3,4-dihydro-2H-benzo[b][1, 4]thiazin-6-yl)-3-(4-fluorophenyl) urea]

Further lines, the molecule ahead of its results:

SMILES	IC50 [µM]
O=C(Nc1ccc2c(c1)OCC(=O)N2Cc1ccccc1C(=O)O)Nc1ccc2cc[nH]c2c1 [Example 143, 2-((7-(3-(1H-indol-6-yl)ureido)-3-oxo-2,3-dihydro-4H-benzo[b][1,4]oxazin-4-yl)methyl)benzoic acid]	> 10
NC(=O)c1ccccc1CN1C(=O)COc2cc(NC(=O)Nc3ccc4cc[nH]c4c3)ccc21 [Example 144, 2-((7-(3-(1H-indol-6-yl)ureido)-3-oxo-2,3-dihydro-4H-benzo[b][1, 4]oxazin-4-yl)methyl) benzamide]	1 to 10
O=C(Nc1ccc2c(c1)OCC(=O)N2CC1COCCO1)Nc1ccc2cc[nH]c2c1 (stereo not drawn) [Example 145, l-(4-((1,4-dioxan-2-yl)methyl)-3-oxo-3,4-dihydro-2H-benzo[b][1, 4]oxazin-7-yl)-3-(1H-indol-6-yl)urea]	1 to 10
O=C(Nc1ccc2c(c1)OCC(=O)N2Cc1ccncc1)Nc1ccc2cc[nH]c2c1 [Example 147, 1-(iH-indol-6-yl)-3-(3-oxo-4-(pyridin-4-ylmethyl)-3,4-dihydro-2H-benzo[b][1, 4]oxazin-7-yl)urea]	1 to 10
O=C(Nc1ccc2c(c1)OCC(=O)N2Cc1cccnc1)Nc1ccc2cc[nH]c2c1 [Example 148, 1-(1H-indol-6-yl)-3-(3-oxo-4-(pyridin-3-ylmethyl)-3,4-dihydro-2H-benzo [b][1, 4]oxazin-7-yl)urea]	1 to 10
O=C(Nc1ccc2c(c1)OCC(=O)N2Cc1ccccn1)Nc1ccc2cc[nH]c2c1 [Example 149, 1-(iH-indol-6-yl)-3-(3-oxo-4-(pyridin-2-ylmethyl)-3,4-dihydro-2H-benzo[b][1, 4]oxazin-7-yl)urea]	1 to 10
O=C(Nc1ccc2c(c1)OCC(=O)N2Cc1ccc(CO)cc1)Nc1ccc2cc[nH]c2c1 [Example 153, 1-(4-(4-(hydroxymethyl)benzyl)-3-oxo-3,4-dihydro-2H-benzo[b][1, 4]oxazin-7-yl)-3-(1H-indol-6-yl)urea]	> 10
O=C(Nc1ccc2c(c1)OCC(=O)N2Cc1cnccn1)Nc1ccc2cc[nH]c2c1 [Example 154, 1-(1H-indol-6-yl)-3-(3-oxo-4-(pyrazin-2-ylmethyl)-3,4-dihydro-2H-benzo[b][i, 4]oxazin-7-yl)urea]	> 10
NC(=O)c1cccc(CN2C(=O)COc3cc(NC(=O)Nc4ccc5cc[nH]c5c4)ccc32)c1 [Example 155, 3-((7-(3-(1H-indol-6-yl)ureido)-3-oxo-2,3-dihydro-4H-benzo[b][1, 4]oxazin-4-yl)methyl) benzamide]	> 10
O=C(Nc1ccc2c(c1)OCC(=O)N2Cc1cccc(CO)c1)Nc1ccc2cc[nH]c2c1 [Example 156, 1-(4-(3-(hydroxymethyl)benzyl)-3-oxo-3,4-dihydro-2H-benzo[b][1, 4]oxazin-7-yl)-3-(1H-indol-6-yl)urea]	1 to 10
O=C(Nc1ccc2c(c1)OCC(=O)N2Cc1ccc[nH]c1=O)Nc1ccc2cc[nH]c2c1 [Example 158, 1-(1H-indol-6-yl)-3-(3-oxo-4-((2-oxo-1,2-dihydropyridin-3-yl)methyl)-3,4-dihydro-2H-benzo[b][1, 4]oxazin-7-yl)urea]	> 10
O=C(Nc1ccc2c(c1)OCC(=O)N2Cc1ccccc1O)Nc1ccc2cc[nH]c2c1 [Example 159, 1-(4-(2-hydroxybenzyl)-3-oxo-3,4-dihydro-2H-benzo [b][1, 4]oxazin-7-yl)-3-(1H-indol-6-yl)urea]	1 to 10
O=C(Nc1ccc2c(c1)OCC(=O)N2Cc1ccncn1)Nc1ccc2cc[nH]c2c1 [Example 160, 1-(1H-indol-6-yl)-3-(3-oxo-4-(pyrimidin-4-ylmethyl)-3,4-dihydro-2H-benzo[b][1, 4]oxazin-7-yl)urea]	1 to 10
NC(=O)c1cc2c(cc1NC(=O)Nc1ccc3cc[nH]c3c1)OCC(=O)N2Cc1ccccc1 [Example 165, 7-(3-(H-indol-6-yl)ureido)-4-benzyl-3-oxo-3,4-dihydro-2H-benzo[b][1, 4]oxazine-6-carboxamide]	1 to 10
O=C(Nc1ccc2cc[nH]c2c1)Nc1cc2c(cc1Br)N(Cc1ccccc1)C(=O)CO2 [Example 166, 1-(4-benzyl-6-bromo-3-oxo-3,4-dihydro-2H-benzo[b][1, 4]oxazin-7-yl)-3-(1H-indol-6-yl)urea]	1 to 10
O=C(Nc1ccc2c(c1)N(Cc1ccccc1)CCO2)Nc1ccc2cc[nH]c2n1 [Example 172, 1-(4-benzyl-3,4-dihydro-2H-benzo[b][1, 4]oxazin-6-yl)-3-(1H-pyrrolo[2,3-b]pyridin-6-yl)urea]	1 to 10
O=C(Nc1ccc2c(c1)N(Cc1ccc(OC(F)(F)F)cc1F)CCO2)Nc1ccc2cc[nH]c2c1 [Example 174, 1-(4-(2-fluoro-4-(trifluoro-methoxy)benzyl)-3,4-dihydro-2H-benzo[b][1, 4]oxazin-6-yl)-3-(1H-indol-6-yl)urea]	≤ 1
O=S(=O)(Nc1ccc2c(c1)OCCN2c1ccccc1)Nc1ccc2cc[nH]c2c1 [Example 175, N-1H-indol-6-yl-N′-(4-phenyl-3,4-dihydro-2H-1,4-benzoxazin-7-yl)sulfuric diamide]	1 to 10
O=S(=O)(Nc1ccc2c(c1)N(Cc1ccccc1)CCO2)Nc1ccc2cc[nH]c2c1 [Example 176, 4-Benzyl-N-(1H-indol-6-ylsulfamoyl)-2,3-dihydro-1,4-benzoxazin-6-amine]	1 to 10
O=C(Nc1ccc2c(c1)N(Cc1ccccc1)CCO2)Nc1cnc2cc[nH]c2c1 [Example 177, 1-(4-benzyl-3,4-dihydro-2H-benzo[b][1, 4]oxazin-6-yl)-3-(1H-pyrrolo[3,2-b]pyridin-6-yl)urea]	1 to 10
CN(C(=O)Nc1ccc2cc[nH]c2c1)c1ccc2c(c1)N(Cc1ccccc1)CCO2 [Example 178, 1-(4-benzyl-3,4-dihydro-2H-benzo[b][1, 4]oxazin-6-yl)-3-(1H-indol-6-yl)-1-methylurea]	1 to 10

— US20230124361A1, “SMALL MOLECULE STING ANTAGONISTS” (CURADEV PHARMA PVT. LTD., priority 2020, published 2023)
